Results as given in PMC6117091, “The C. difficile clnRAB operon initiates adaptations to the host environment in response to LL-37” (PLoS Pathogens, 2018).
pKd: −log10 of the molar value. Converted amounts (≈) assume the structure as drawn. Where two headings read alike, the source gives them in different places. Where a SMILES comes first, the peptide text is derived from it. Bridges are numbered along the chain shown (N, C = ends). Where no end group is shown, it is not given here. [ ]: non-standard residue; d: D form. The star is where a group is joined. X1 = CC[C@H](C)CCCCC(=O)*; Dab = NCC[C@H](N)C(=O)O

Legend:
[1] = system: clnR expression in C. difficile 630Δerm; assay: clnR expression by qRT-PCR after exposure to antimicrobials (induction specificity); details: for Relative clnR expression: BHIS, mean of three replicates ± SEM; for Induction of clnR transcription (in words): concentrations of Table 1
[2] = biological target: LL-37 (human cathelicidin) (human)
[3] = system: C. difficile clnR mutant (MC885); assay: Minimum inhibitory concentration (MIC); type: cell-based, Clostridioides difficile; details: Mueller-Hinton Broth, 24 h, 37°C, anaerobic, ~5 x 10^5 CFU/ml
Description: (§1) Minimum inhibitory concentrations (MIC) were determined as previously described. […] Briefly, overnight cultures of C. difficile strains were diluted 1:50 in Mueller-Hinton Broth (Difco) and grown to OD600 of 0.45 (~5 x 10^7 CFU/ml). Cultures were then diluted 1:10 in MHB and seeded at a further 1:10 dilution in a round-bottom 96-well plate prepared with serial dilutions of antimicrobials for a starting concentration of ~5 x 10^5 CFU/ml. Plates were incubated for 24 h at 37°C in the anaerobic chamber.

C. difficile 630Δerm = assay: Minimum inhibitory concentration (MIC); type: cell-based, Clostridioides difficile; details: Mueller-Hinton Broth, 24 h, 37°C, anaerobic, ~5 x 10^5 CFU/ml
Description: as §1

[4] = system: C. difficile clnAB mutant (MC935); assay: Minimum inhibitory concentration (MIC); type: cell-based, Clostridioides difficile; details: Mueller-Hinton Broth, 24 h, 37°C, anaerobic, ~5 x 10^5 CFU/ml
Description: as §1

[5] = Clostridioides difficile, read-out: MIC

Lysozyme
Relative clnR expression ([1]; 1 mg/ml, normalized to 630Δerm without antimicrobials): 1.1 ± 0.3
Induction of clnR transcription (in words) [1]: none of the other cell-surface-active antimicrobials tested

Recombinant N-terminally His-tagged ClnR (natural protein)
pKd [2]: 7.08

nisin (ITSISLCTPGCKTGALMGCNMKTATCHCSIHVSK; also: lantibiotic, modified residues and rings not given here; UniProt P13068 24-57, looked up)
MIC [3]: 360 µg/mL
MIC (C. difficile 630Δerm): 360 µg/mL
MIC [4]: 360 µg/mL
Relative clnR expression ([1]; 7.5 μg/ml, normalized to 630Δerm without antimicrobials): 1.1 ± 0.4
Induction of clnR transcription (in words) [1]: none of the other cell-surface-active antimicrobials tested

CC[C@H](C)CCCCC(=O)N[C@@H](CCN)C(=O)N[C@H](C(=O)N[C@@H](CCN)C(=O)N[C@H]1CCNC(=O)[C@H]([C@@H](C)O)NC(=O)[C@H](CCN)NC(=O)[C@H](CCN)NC(=O)[C@H](CC(C)C)NC(=O)[C@@H](Cc2ccccc2)NC(=O)[C@H](CCN)NC1=O)[C@@H](C)O [Polymyxin B, polymyxin B] (X1-[Dab]T[Dab][Dab][Dab][dF]L[Dab][Dab]T; lactam 4-C (inferred); N-terminus assumed)
MIC [3]: 500 µg/mL (≈ 415 µM)
MIC (C. difficile 630Δerm): 500 µg/mL (≈ 415 µM)
MIC [4]: 500 µg/mL (≈ 415 µM)
Relative clnR expression ([1]; 200 μg/ml, normalized to 630Δerm without antimicrobials): 1.2 ± 0.2
Induction of clnR transcription (in words) [1]: none of the other cell-surface-active antimicrobials tested

mCRAMP
Relative clnR expression ([1]; 2 μg/ml, normalized to 630Δerm in BHIS without antimicrobials): 111.4 ± 27.3
Induction of clnR transcription (in words) [1]: also induced

CC1(C)S[C@@H]2[C@H](NC(=O)[C@H](N)c3ccccc3)C(=O)N2[C@H]1C(=O)O [Ampicillin, ampicillin]
MIC [3, 5]: 4 µg/mL (≈ 11.4 µM)
MIC (C. difficile 630Δerm; [5]): 4 µg/mL (≈ 11.4 µM)
MIC [4, 5]: 4 µg/mL (≈ 11.4 µM)
Induction of clnR transcription (in words) [1]: none of the other cell-surface-active antimicrobials tested

CN[C@H](CC(C)C)C(=O)N[C@H]1C(=O)N[C@@H](CC(N)=O)C(=O)N[C@H]2C(=O)N[C@H]3C(=O)N[C@H](C(=O)N[C@H](C(=O)O)c4cc(O)cc(O)c4-c4cc3ccc4O)[C@H](O)c3ccc(c(Cl)c3)Oc3cc2cc(c3O[C@@H]2O[C@H](CO)[C@@H](O)[C@H](O)[C@H]2O[C@H]2C[C@](C)(N)[C@H](O)[C@H](C)O2)Oc2ccc(cc2Cl)[C@H]1O [Vancomycin, vancomycin]
MIC [3, 5]: 1 µg/mL (≈ 0.69 µM)
MIC (C. difficile 630Δerm; [5]): 1 µg/mL (≈ 0.69 µM)
MIC [4, 5]: 1 µg/mL (≈ 0.69 µM)
Induction of clnR transcription (in words) [1]: none of the other cell-surface-active antimicrobials tested
